Counter-ions that a name gives are not always drawn.
How the values were obtained:
KDR (h) = KDR (h) (Homo sapiens, UniProt P35968); assay: KDR (VEGFR2) (enzymatic assay), TR-FRET; format: biochemical; conditions: average values if tested multiple times, read-out: VEGFR 2 (KDR) pIC50 (converted)
Description: KDR (VEGFR2) (Enzymatic Assay)
In a final reaction volume of 30 μL, KDR (h) (150 ng/ml) was incubated with 50 mM HEPES pH 7.5, 6 mM MnCl2, 1 mM DTT, 0.1 mM Na3VO4, 0.01% Triton-X-100, 500 nM Btn-Flt3 and 3 μM ATP in the presence of compound (1% DMSO final). After incubation for 120 minutes at room temperature the reaction was stopped with 2.27 nM EU-anti P-Tyr, 7 mM EDTA, 31.25 nM SA-XL-665 and 0.02% BSA which was present for 60 minutes at room temperature. Time-Resolved Fluorescence Resonance Energy Transfer (TR-FRET) signal (ex340 nm. Em 620 nm, em 655 nm) was measured afterwards and results are expressed in RFU (Relative Fluorescence Units).

[1] = tested on: Ba/F3-FGFR1-transfected cells; assay: Ba/F3-FGFR1 (plus IL3) cellular proliferation assay, counterscreen with 10 ng/ml murine IL3; format: cell-based; conditions: plus IL3 (10 ng/ml murine IL3, counterscreen)
Description: (§1) Ba/F3-FGFR1 (Minus IL3 or Plus IL3) (Cellular Proliferation Assay)
(§2) In a 384 well plate, 100 nl of compound dilution in DMSO was sprayed before adding 50 μl cell culture medium (phenol red free RPMI-1640, 10% FBS, 2 mM L-Glutamine and 50 μg/ml Gentamycin) containing 20000 cells per well of Ba/F3-FGFR1-transfected cells. Cells were put in an incubator at 37° C. and 5% CO2. After 24 hours, 10 μl of Alamar Blue solution (0.5 mM K3Fe(CN)6, 0.5 mM K4Fe(CN)6, 0.15 mM Resazurin and 100 mM Phosphate Buffer) was added to the wells, incubated for 4 hours at 37° C. and 5% CO2 before RFU's (Relative Fluorescence Units) (ex. 540 nm., em. 590 nm.) were measured in a fluororescence plate reader.
(§3) As a counterscreen the same experiment was performed in the presence of 10 ng/ml murine IL3.

[2] = target: T1, Ba/F3-KDR-transfected cells (Homo sapiens, UniProt P35968); assay: Ba/F3-KDR (minus IL3) cellular proliferation assay, Alamar Blue; format: cell-based
T1 construct: BAF3-KDR (MIN IL3) pIC50; other: minus IL3
Description: (§4) Ba/F3-KDR (Minus IL3 or Plus IL3) (Cellular Proliferation Assay)
as §2, with “n1” for “nl”, “Ba/F3-KDR-transfected” for “Ba/F3-FGFR1-transfected”, “reader. […]” for “reader.”

[3] = tested on: Ba/F3-KDR-transfected cells; assay: Ba/F3-KDR (plus IL3) cellular proliferation assay, counterscreen with 10 ng/ml murine IL3; format: cell-based; conditions: plus IL3 (10 ng/ml murine IL3, counterscreen)
Description: as §4
as §2, with “n1” for “nl”, “Ba/F3-KDR-transfected” for “Ba/F3-FGFR1-transfected”
as §3

[4] = target: Ba/F3-FGFR4-transfected cells (Homo sapiens, UniProt P22455); assay: Ba/F3-FGFR4 cellular proliferation assay, Alamar Blue; format: cell-based
Description: Ba/F3-FGFR4 (Cellular Proliferation Assay)
as §2, with “n1” for “nl”, “Ba/F3-FGFR4-transfected” for “Ba/F3-FGFR1-transfected”

FGFR3 (h) = FGFR3 (h) (Homo sapiens, UniProt P22607); assay: FGFR3 (enzymatic assay), TR-FRET; format: biochemical; conditions: average values if tested multiple times, read-out: FGFR 3 pIC50 (converted)
Source text: Time-Resolved Fluorescence Resonance Energy Transfer (TR-FRET) signal (ex340 nm.

[5] = target: T2, Ba/F3-FGFR1-transfected cells (Homo sapiens, UniProt P11362); assay: Ba/F3-FGFR1 (minus IL3) cellular proliferation assay, Alamar Blue; format: cell-based
T2 construct: BAF3-FGFR1 (MIN IL3) pIC50; other: minus IL3
Description: as §1, §2

[6] = tested on: Ba/F3-FGFR3-transfected cells; assay: Ba/F3-FGFR3 (plus IL3) cellular proliferation assay, counterscreen with 10 ng/ml murine IL3; format: cell-based; conditions: plus IL3 (10 ng/ml murine IL3, counterscreen)
Description: (§5) Ba/F3-FGFR3 (Minus IL3 or Plus IL3) (Cellular Proliferation Assay)
as §2, with “Ba/F3-FGFR3-transfected” for “Ba/F3-FGFR1-transfected”
as §3

[7] = target: T3, Ba/F3-FGFR3-transfected cells (Homo sapiens, UniProt P22607); assay: Ba/F3-FGFR3 (minus IL3) cellular proliferation assay, Alamar Blue; format: cell-based
T3 construct: BAF3-FGFR3 (MIN IL3) pIC50; other: minus IL3
Description: as §5
as §2, with “Ba/F3-FGFR3-transfected” for “Ba/F3-FGFR1-transfected”, “reader. […]” for “reader.”

FGFR1 (h) = FGFR1 (h) (Homo sapiens, UniProt P11362); assay: FGFR1 (enzymatic assay), TR-FRET; format: biochemical; conditions: average values if tested multiple times, read-out: FGFR 1 pIC50 (converted)
FGFR4 (h) = FGFR4 (h) (Homo sapiens, UniProt P22455); assay: FGFR4 (enzymatic assay), TR-FRET; format: biochemical; conditions: FGFR 4 pIC50, enzymatic assay; average values if tested multiple times
FGFR2 (h) = FGFR2 (h) (Homo sapiens, UniProt P21802); assay: FGFR2 (enzymatic assay), TR-FRET; format: biochemical; conditions: enzymatic assay; average values if tested multiple times; read-out: FGFR 2 pIC50 (converted)
Description: In a final reaction volume of 30 μL, FGFR2 (h) (150 ng/ml) was incubated with 50 mM HEPES pH 7.5, 6 mM MnCl2, 1 mM DTT, 0.1 mM Na3VO4, 0.01% Triton-X-100, 500 nM Btn-Flt3 and 0.4 μM ATP in the presence of compound (1% DMSO final).

T3 sequence (P22607 whole entry, change not shown): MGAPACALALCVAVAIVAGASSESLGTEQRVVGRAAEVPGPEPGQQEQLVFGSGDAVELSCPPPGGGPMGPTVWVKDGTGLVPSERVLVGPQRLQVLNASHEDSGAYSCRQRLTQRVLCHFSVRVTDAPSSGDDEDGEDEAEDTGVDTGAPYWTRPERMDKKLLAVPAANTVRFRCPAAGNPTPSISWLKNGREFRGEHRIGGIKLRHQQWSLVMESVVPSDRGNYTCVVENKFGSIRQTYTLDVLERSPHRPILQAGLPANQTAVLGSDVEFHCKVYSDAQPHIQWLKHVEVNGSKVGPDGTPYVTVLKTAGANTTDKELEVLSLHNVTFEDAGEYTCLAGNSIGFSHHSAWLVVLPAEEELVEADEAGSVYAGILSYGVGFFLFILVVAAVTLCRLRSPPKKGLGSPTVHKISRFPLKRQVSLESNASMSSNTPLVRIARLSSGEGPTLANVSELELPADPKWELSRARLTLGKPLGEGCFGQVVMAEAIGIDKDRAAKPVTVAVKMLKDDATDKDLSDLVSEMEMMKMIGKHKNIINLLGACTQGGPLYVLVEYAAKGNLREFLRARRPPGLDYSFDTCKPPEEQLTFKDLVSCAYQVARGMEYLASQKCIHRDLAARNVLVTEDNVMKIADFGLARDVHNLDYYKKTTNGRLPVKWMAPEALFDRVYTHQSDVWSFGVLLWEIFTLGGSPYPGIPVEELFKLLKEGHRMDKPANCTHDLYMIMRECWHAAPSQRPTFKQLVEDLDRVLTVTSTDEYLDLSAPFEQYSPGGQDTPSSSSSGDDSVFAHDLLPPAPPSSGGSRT
Sequence of FGFR2 (h) (P21802 22-821): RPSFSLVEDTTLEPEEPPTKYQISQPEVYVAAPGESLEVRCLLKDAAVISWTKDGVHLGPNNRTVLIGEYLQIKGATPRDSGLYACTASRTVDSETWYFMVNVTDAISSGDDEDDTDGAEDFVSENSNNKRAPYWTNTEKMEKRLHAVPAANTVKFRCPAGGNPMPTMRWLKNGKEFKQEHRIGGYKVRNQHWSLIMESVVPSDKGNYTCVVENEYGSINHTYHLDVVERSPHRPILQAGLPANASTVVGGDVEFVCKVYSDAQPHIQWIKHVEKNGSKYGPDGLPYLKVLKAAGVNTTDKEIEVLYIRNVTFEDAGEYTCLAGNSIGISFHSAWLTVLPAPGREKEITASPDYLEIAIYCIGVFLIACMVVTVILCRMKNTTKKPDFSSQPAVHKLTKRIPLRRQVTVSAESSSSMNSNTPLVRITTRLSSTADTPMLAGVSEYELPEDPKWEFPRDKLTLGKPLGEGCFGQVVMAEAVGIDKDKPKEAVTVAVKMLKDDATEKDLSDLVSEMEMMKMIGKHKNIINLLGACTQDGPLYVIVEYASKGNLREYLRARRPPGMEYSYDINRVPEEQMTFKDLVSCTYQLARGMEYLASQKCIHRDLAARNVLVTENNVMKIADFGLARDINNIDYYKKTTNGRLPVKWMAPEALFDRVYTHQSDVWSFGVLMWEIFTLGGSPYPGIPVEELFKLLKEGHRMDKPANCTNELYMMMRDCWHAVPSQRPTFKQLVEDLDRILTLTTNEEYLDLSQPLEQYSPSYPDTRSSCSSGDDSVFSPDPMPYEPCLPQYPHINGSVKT
Sequence of FGFR4 (h) (P22455 22-802): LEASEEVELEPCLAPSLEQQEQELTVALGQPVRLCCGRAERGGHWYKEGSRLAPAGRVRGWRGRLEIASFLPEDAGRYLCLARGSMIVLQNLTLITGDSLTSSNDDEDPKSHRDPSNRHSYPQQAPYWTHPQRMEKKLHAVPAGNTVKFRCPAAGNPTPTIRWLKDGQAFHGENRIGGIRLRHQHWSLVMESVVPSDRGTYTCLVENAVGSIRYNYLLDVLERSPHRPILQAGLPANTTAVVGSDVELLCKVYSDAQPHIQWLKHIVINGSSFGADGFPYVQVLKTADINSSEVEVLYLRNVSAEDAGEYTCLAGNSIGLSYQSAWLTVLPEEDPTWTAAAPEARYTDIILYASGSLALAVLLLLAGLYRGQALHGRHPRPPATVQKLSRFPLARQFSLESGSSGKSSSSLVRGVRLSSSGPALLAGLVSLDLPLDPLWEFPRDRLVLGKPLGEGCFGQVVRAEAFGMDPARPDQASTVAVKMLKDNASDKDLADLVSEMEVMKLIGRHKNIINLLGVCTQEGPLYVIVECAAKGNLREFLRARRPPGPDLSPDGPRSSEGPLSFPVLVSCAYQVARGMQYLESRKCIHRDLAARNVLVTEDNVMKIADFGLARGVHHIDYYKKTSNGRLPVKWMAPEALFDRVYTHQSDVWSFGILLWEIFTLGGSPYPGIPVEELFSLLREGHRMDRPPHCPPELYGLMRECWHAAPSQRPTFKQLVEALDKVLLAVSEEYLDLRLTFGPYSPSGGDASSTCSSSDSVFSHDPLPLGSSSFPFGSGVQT
Sequence of KDR (h) (P35968 20-1356): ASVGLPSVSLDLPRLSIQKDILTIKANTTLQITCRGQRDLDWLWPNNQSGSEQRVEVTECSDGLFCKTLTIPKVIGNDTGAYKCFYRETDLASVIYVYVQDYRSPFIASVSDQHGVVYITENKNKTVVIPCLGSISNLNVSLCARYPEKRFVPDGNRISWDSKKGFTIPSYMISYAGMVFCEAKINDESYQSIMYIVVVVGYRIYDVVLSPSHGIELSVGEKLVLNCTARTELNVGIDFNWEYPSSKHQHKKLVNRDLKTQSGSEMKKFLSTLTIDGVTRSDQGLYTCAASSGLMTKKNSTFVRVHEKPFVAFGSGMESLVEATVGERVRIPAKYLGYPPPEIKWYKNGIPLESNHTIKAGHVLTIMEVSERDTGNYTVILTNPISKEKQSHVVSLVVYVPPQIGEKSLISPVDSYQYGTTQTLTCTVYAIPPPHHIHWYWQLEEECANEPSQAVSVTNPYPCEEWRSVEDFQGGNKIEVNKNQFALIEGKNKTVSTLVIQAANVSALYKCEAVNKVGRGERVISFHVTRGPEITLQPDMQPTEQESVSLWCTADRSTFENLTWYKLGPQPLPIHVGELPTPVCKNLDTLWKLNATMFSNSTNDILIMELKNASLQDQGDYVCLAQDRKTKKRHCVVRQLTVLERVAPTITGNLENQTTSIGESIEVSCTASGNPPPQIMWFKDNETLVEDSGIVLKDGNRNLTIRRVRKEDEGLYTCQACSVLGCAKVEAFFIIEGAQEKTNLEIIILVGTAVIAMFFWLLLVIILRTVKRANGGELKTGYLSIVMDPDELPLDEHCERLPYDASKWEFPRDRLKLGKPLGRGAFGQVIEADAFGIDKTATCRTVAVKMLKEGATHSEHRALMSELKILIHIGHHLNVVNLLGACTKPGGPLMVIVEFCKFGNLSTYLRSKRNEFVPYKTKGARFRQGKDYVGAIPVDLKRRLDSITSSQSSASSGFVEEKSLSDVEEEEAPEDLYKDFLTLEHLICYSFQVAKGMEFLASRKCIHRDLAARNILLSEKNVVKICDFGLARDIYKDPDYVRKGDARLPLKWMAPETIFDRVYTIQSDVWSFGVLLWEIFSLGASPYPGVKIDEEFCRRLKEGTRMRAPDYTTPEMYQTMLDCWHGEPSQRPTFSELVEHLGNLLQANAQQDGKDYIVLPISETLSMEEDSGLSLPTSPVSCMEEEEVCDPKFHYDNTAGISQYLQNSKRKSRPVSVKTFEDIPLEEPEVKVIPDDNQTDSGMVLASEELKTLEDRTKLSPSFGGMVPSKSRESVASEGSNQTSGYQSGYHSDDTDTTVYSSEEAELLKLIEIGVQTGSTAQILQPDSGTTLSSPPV
T2 sequence (P11362 whole entry, change not shown): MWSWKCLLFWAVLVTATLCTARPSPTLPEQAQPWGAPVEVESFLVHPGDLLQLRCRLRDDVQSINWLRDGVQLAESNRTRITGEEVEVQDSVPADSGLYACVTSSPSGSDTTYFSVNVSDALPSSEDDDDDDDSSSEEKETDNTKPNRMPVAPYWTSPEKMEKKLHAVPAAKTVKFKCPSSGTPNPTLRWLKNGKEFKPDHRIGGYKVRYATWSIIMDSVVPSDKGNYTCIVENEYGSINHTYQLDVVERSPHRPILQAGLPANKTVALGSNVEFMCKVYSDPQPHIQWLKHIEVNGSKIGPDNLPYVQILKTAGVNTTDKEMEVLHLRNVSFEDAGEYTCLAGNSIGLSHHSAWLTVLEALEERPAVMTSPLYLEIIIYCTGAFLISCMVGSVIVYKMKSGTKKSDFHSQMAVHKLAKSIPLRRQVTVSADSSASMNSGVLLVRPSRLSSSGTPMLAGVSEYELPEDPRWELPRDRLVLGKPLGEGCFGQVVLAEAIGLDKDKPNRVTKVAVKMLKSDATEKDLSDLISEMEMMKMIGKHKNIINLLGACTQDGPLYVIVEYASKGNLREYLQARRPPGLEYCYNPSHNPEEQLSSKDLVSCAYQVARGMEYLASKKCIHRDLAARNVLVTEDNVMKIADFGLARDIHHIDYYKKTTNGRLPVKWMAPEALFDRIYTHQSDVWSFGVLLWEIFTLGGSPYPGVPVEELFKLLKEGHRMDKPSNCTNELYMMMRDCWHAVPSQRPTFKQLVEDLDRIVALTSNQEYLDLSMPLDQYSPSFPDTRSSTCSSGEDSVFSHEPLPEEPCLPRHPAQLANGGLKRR

| SMILES | IC50 (KDR (h)) [nM] | BAF3-FGFR1 (PLUS IL3) pIC50 [1] | BAF3-KDR (MIN IL3) pIC50 [2] | BAF3-KDR (PLUS IL3) pIC50 [3] | BAF3-FGFR4 pIC50 [4] | IC50 (FGFR3 (h)) [nM] | BAF3-FGFR1 (MIN IL3) pIC50 [5] | BAF3-FGFR3 (PLUS IL3) pIC50 [6] | BAF3-FGFR3 (MIN IL3) pIC50 [7] | IC50 (FGFR1 (h)) [nM] | IC50 (FGFR4 (h)) [nM] | IC50 (FGFR2 (h)) [nM] |
| --- | --- | --- | --- | --- | --- | --- | --- | --- | --- | --- | --- | --- |
| COc1cc(OC)c(F)c(N(Cc2ncc[nH]2)c2ccc3ncc(-c4cnn(C)c4)nc3n2)c1 [23-fumarate salt] | 5.13 | <5 | 6.67 | <5 | 7.94 | ~0.891 | 8.85 | <5 | ~8.67 | 0.479 | 0.794 | 1.51 |
| COc1cc(OC)c(F)c(N(Cc2ncc[nH]2)c2ccc3ncc(-c4cnn(C)c4)nc3n2)c1 [23-hydrochloric acid salt] | 6.76 | <5 | 6.68 | <5 | 7.98 | 0.776 | 8.81 | <5 | ~8.58 | 0.437 | 0.851 | 1.41 |
| COc1cc(OC)c(F)c(N(Cc2ncc[nH]2)c2ccc3ncc(-c4cnn(C)c4)nc3n2)c1 [23-lactate salt] | 6.61 | <5 | 6.83 | <5 | 8.13 | 0.955 | 8.29 | <5 | ~8.14 | 0.501 | 1.1 | 1.38 |
| COc1cc(OC)c(F)c(N(Cc2ncc[nH]2)c2ccc3ncc(-c4cnn(C)c4)nc3n2)c1 [23-phosphate salt] | 7.94 | <5 | 7.03 | <5 | 8.15 | 1.1 | 8.83 | <5 | ~8.64 | 0.468 | 0.977 | 1.91 |
| COc1cc(OC)cc(N(Cc2ncc[nH]2)c2ccc3ncc(-c4cnn(C)c4)nc3n2)c1 [24-fumarate salt] | 11.7 | <5 | 6.38 | <5 | 7.85 | 0.851 | 8.46 | <5 | ~8.61 | 0.631 | 1.2 | 1.26 |
| COc1cc(OC)cc(N(Cc2ncc[nH]2)c2ccc3ncc(-c4cnn(C)c4)nc3n2)c1 [24-hydrochloric acid salt] | 7.24 | <5 | 5.92 | <5 | 7.77 | 1.02 | 8.16 | <5 | 7.96 | 0.776 | 1.2 | 1.41 |
| COc1cc(OC)cc(N(Cc2ncc[nH]2)c2ccc3ncc(-c4cnn(C)c4)nc3n2)c1 [24-phosphate salt] | 14.5 | <5 | 6.05 | <5 | 7.47 | 0.832 | 8.42 | <5 | 7.74 | 0.708 | 1.02 | 1.23 |
| COc1cc(OC)cc(N(Cc2ncc[nH]2)c2ccc3ncc(-c4cnn(C)c4)nc3n2)c1 [24-sulphate salt] | 13.2 | <5 | 6.15 | <5 | 7.57 | ~0.912 | 8.29 | <5 | ~8.15 | 0.55 | 0.759 | 1.29 |
| COc1cc(OC)c(F)c(N(CC2CCC(=O)N2)c2ccc3ncc(-c4cnn(C)c4)nc3n2)c1F (stereo not drawn) [Compound 48] | 24.5 | <5 | 6.03 | <5 | 6.89 | 1.7 | 8.00 | <5 | ~7.94 | 1.26 | 2.19 | 3.24 |

From US9309242B2, “Substituted pyrido[2,3-b]pyrazines as FGFR kinase inhibitors” (priority 2011, dated 2016)
